Values of other authors in paper PMC5774433 (MedChemComm, 2017).

Test system: menin

- increase in the binding affinity compared to its non-fluorinated counterpart: over 20 fold
SMILES: CC1(C)CN=C(N2CCN(c3ncnc4sc(CC(F)(F)F)cc34)CC2)S1 [MI-2-2]
